Assays:
Type in all cases: cell-based, human
[1] = tested on: hPSCs (CHA-ESC15); experiment: hPSC cell proliferation ability (optical microscopy and cell count); conditions: cultured 6 days; for cell proliferation rate increase compared to the control group (FIG. 3): hPSCs, 10 nM, counted day 7, control DMSO; for apoptosis seen in micrographs (FIG. 2): hPSCs, 50, 100 or 500 nM
Experimental: They were shaken up and down, left and right to evenly disperse the cells and cultured within 24 hours in a 37° C. CO2 incubator. The culture medium was replaced with the E8 culture medium from which Y27632 was removed, and then the cells were cultured by replacing the culture medium every day until the next passage.
On the 7th day, the cells were observed using an optical microscope at a magnification of 100 times.
In addition, in order to measure the number of cells, the culture medium of the cells was removed on the 7th day of culture, and they were washed once with PBS. Then, for PBS-removed cells, cell dissociation buffer ([…]) was used to cause single-cell. The separated cells were centrifuged at 1000 rpm for 2 minutes to remove the buffer. Then, the cells were suspended in an E8 medium, and the number of cells was measured using EVE™ Automated Cell Counter (NanoEnTek).
Meanwhile, the control group was tested in the same manner as above, except that hPSCs were treated with DMSO (AppliChem GE, A3672,0100).
The culture was performed for 6 days, and hPSCs were observed on the 7th day. The proliferation rate was calculated as {(total number of cells in P1P, cP1P, or SW treatment group)/(total number of cells in the control group)}×100.

[2] = tested on: hPSCs; experiment: Alkaline phosphatase staining of hPSCs (undifferentiation ability); conditions: 10 nM, compared to DMSO control
Experimental: In order to check whether the differentiation ability of hPSCs was changed by cP1P treatment, hPSCs were treated with 10 nM cP1P or a control group (vehicle, DMSO) in the same manner as in Example 2.

[3] = tested on: REX1, E-Cadherin, OCT4, SOX2, NANOG, SSEA-4; experiment: Pluripotency marker expression in hPSCs (immunofluorescence, pluripotent array kit, flow cytometry, Western blot); conditions: 100 nM
Experimental: (§1) For expression analysis of cell cycle regulatory genes, hPSCs were treated with 10 nM cP1P in the same manner as in Example 1. After hPSCs were washed with PBS, hPSCs were fixed in 4% (w/v) PFA (Santa Cruz Biotechnology US, 30525-89-4) for 5 minutes, or after the protein of hPSC cells was recovered, followed by electrophoresis. The expression of pluripotency genes was analyzed (immunofluorescence analysis or Western blot analysis) using anti-REX1(Abcam UK, ab50828), anti-OCT4(Santa Cruz Biotechnology US, sc-5279), anti-SOX2(Abcam UK, ab97959), anti-NANOG(Cell signaling US, 4893s), anti-E-cadherin(Cell signaling US, 24E10), or anti-SSEA4(Merck millipore US, 90231) antibody. Meanwhile, the control group was tested in the same manner as above, except that hPSCs were treated with DMSO (AppliChem GE, A3672,0100).
Specifically, hPSCs were treated with 100 nM cP1P in the same manner as in Example 1. Immunofluorescence analysis was performed in the same manner as in Example 6. Expression of pluripotency-related genes was analyzed using a pluripotent array kit (R&D System US, ARY101). Flow cytometry was performed in the same manner as in Example 6.

[4] = tested on: CDK1, Cyclin B; experiment: Expression of cell cycle regulatory genes in hPSCs; conditions: 10 nM, compared to control
Experimental: as §1

[5] = tested on: hPSCs; experiment: hPSC cell cycle by PI flow cytometry; conditions: 10 nM
Experimental: For flow cytometry, hPSCs were treated with 10 nM cP1P in the same manner as in Example 1, and hPSCs were separated using cell dissociation buffer (Thermo Fisher Scientific US, A1110501), and harvested cells were washed three times with DPBS (pH 7.4). After washing, the supernatant was removed. During washing, cold 70% (v/v) ethanol was added dropwise to the cell pellet. The cells were fixed at 4° C. for 1 hour and washed 3 times with DPBS (pH 7.4). After centrifugation at 2,000 rpm for 5 minutes, 50 uL of 100 μg/ml RNase (Sigma-Aldrich US, R4642) was added. They were mixed well and added with 200 μl of PI (propidium iodide) (Sigma-Aldrich US, P4170) (50 μg/ml) to stain the DNA. Then, the DNA content was measured using flow cytometry (BD).

[6] = tested on: hPSCs; experiment: Apoptosis and cytotoxicity assay (Annexin V / 7-AAD); conditions: 5 days; for apoptosis marker, (Annexin V, early apoptosis marker; FIG. 8): DMSO control 0.5%; for apoptosis marker, (7-AAD, late apoptosis marker; FIG. 8): DMSO control 6.2%
Experimental: In order to confirm apoptosis, hPSCs were treated with 10 nM cP1P in the same manner as in Example 1, hPSCs were separated using cell dissociation buffer (Thermo Fisher Scientific US, A1110501), and harvested cells were washed with DPBS (pH 7.4) 2 times. After centrifuged at 2,000 rpm for 5 minutes. The cells were resuspended at 1×10^5 cells per 100 ul of 1× binding buffer to which 10× binding buffer (0.1 M HEPES, 1.4 M NaCl, 25 mM CaCl2, pH 7.4) was diluted. They were added with 5 ul each of Annexin V (BD bioscience US, 556422) and 7-AAD (BD bioscience U.S. Pat. No. 1,559,925) and mixed slowly. They were cultured for 15 minutes in the dark at room temperature and added with 400 ul of 1× binding buffer. Then, analysis was performed using the Annexin V apoptosis detection kit (BD Pharmingen US, 556547).
In order to confirm whether apoptosis and cytotoxicity were induced when hPSCs were treated with cP1P, hPSCs were treated with 10 nM or 100 nM cP1P for 5 days in the same manner as in Example 6, and then Annexin V apoptosis detection kit (BD Pharmingen US, 556547) was used for analysis.

[7] = tested on: hPSCs; experiment: RNA sequencing of hPSCs after long-term (15 passages) treatment; conditions: 10 nM
Experimental: Specifically, hPSCs were treated and cultured with 10 nM cP1P or were treated and cultured with DMSO as a control group in the same manner as in Example 1. The passage in which cP1P was first treated was defined as 0 and cultured up to a total of 15 passages. After the cells were recovered, and RNAs were extracted. The RNA sequencing analysis was performed with a next-generation sequencing analyzer (Illumina HiSeq 2500) by DGIST (Daegu Gyeongbuk Institute of Science and Technology) asked to analyze the cells.

[8] = tested on: hPSCs; experiment: hPSC proliferation during subculture (total number of cells); conditions: continuous 10 nM, subculture 3 times, P<0.01
Experimental: In order to check whether the change in hPSCs proliferation ability by cP1P treatment is maintained during subculture, hPSCs were continuously treated with 10 nM cP1P in the same manner as in Example 1, and after subculture 3 times, the proliferation change of hPSCs was confirmed.

CCCCCCCCCCCCCC[C@@H](O)[C@@H](O)[C@@H](N)COP(=O)(O)O [P1P, phytosphingosine-1-phosphate]
cell proliferation rate increase compared to the control group (FIG. 3) [1]: about 1.55 times | apoptosis seen in micrographs (FIG. 2) ([1]; observed day 7): apoptosis occurred

CCCCCCCCCCCCC/C=C/[C@@H](O)[C@@H](N)COP(=O)(O)O [S1P, sphingosine-1-phosphate]
cell proliferation rate increase compared to the control group (FIG. 3) [1]: about 1.25 times | apoptosis seen in micrographs (FIG. 2) ([1]; observed day 7): apoptosis occurred

CCCCCCCCCCCCCC[C@@H](O)[C@H]1OP(=O)(O)OC[C@@H]1N [cP1P, o-cyclic phytosphingosine-1-phosphate]
undifferentiation ability (alkaline phosphatase staining, FIG. 4) [2]: well maintained | expression of pluripotency marker genes REX1, E-Cadherin, OCT4 and SOX2 (immunofluorescence, FIG. 9A) ([3]; compared to control): increased | protein expression of OCT4 and E-Cadherin (FIG. 9D) ([3]; compared to control): increased | spots of pluripotency-related genes OCT4, NANOG, SOX2 and E-Cadherin (array, FIG. 9B) ([3]; compared to control): detected to be high | protein expression of SSEA-4 (FIG. 9C) ([3]; control 68.8%): 82.2% | protein expression of E-Cadherin (FIG. 9C) ([3]; control 81.8%): 85.6% | protein expression of REX1 (FIG. 9C) ([3]; control 86.8%): 95.7% | protein expression of OCT4 (FIG. 9C) ([3]; control 95.2%): 96.5% | expression of genes regulating the cell cycle (CDK1, Cyclin B; FIGS. 7C to 7E) [4]: increased | increase of cell proliferation compared to the control group (FIG. 7A) [5]: ≥ 12% | number of cells in G2/M phase (FIG. 7B) ([5]; compared to control, P<0.01): significantly increased | number of cells in sub-GO phase (apoptotic cells, FIG. 7B) ([5]; compared to control, P>0.05): significantly reduced | cell proliferation, experimental group (FIG. 7A) ([5]; control group 48%): 60% | apoptosis compared to the control group (FIG. 8) ([6]; 10 nM or 100 nM): reduced | cytotoxicity compared to the control group (FIG. 8) ([6]; 10 nM or 100 nM): significantly lowered | apoptosis marker, (Annexin V, early apoptosis marker; FIG. 8) ([6]; 10 nM): 0.9% | apoptosis marker, (7-AAD, late apoptosis marker; FIG. 8) ([6]; 10 nM): 3.9% | apoptosis marker, (Annexin V, early apoptosis marker; FIG. 8) ([6]; 100 nM): 1.9% | apoptosis marker, (7-AAD, late apoptosis marker; FIG. 8) ([6]; 100 nM): 5.3% | cluster 5 (C5) gene expression (cell development, embryo development, cell proliferation genes) ([7]; decreased in untreated control): stably maintained | cluster 2 (C2) gene expression (oxidative stress and apoptotic process genes) ([7]; increased in untreated control): decreased | gene expression changes (DEG) compared with passage 0 (FIG. 10) ([7]; no cP1P-treated group 575): 197 | total number of cells as subculture was performed (FIG. 6) [8]: increased significantly | cell proliferation rate increase compared to the control group (FIG. 3) [1]: 1.78 times | cell proliferation ability (FIG. 2) ([1]; hPSCs, 50, 100 or 500 nM every 2 days, observed day 7, compared to P1P or S1P): significantly increased

Source: patent publication US20220380724A1, “COMPOSITION FOR PROMOTING PROLIFERATION OF STEM CELLS, CONTAINING, AS ACTIVE INGREDIENT, CP1P OR PHARMACEUTICALLY ACCEPTABLE SALT THEREOF” (INDUSTRY-UNIVERSITY COOPERATION FOUNDATION HANYANG …, priority 2019, published 2022)
